Results from US20250368649A1, “TETRAHYDROPYRIDOPYRIMIDINE PAN-KRAS INHIBITORS” (Mirati Therapeutics, Inc., priority 2022, published 2025).

Assays:
A549 cells = assay: Inhibition of KRas-mediated phosphorylation of ERK (Cisbio HTRF pERK), A549 cells; assay type: cell-based; conditions: Homo sapiens, A549, 3 h, 3 hr compound incubation, Cisbio pERK HTRF
PSN1 cells = assay: Inhibition of KRas-mediated phosphorylation of ERK (Cisbio HTRF pERK), PSN1 cells; assay type: cell-based; conditions: Homo sapiens, PSN1, 3 h, 3 hour compound incubation, Cisbio pERK HTRF
Summary of the method: (§1)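 Cells were seeded on day 1 at 6,000 per well in RPMI containing 10% FBS before compound treatment and phospho-ERK detection.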

H727 cells = assay: Inhibition of KRas-mediated phosphorylation of ERK (Cisbio HTRF pERK), H727 cells; assay type: cell-based; conditions: Homo sapiens, NCI-H727, 3 h, 3 hr compound incubation, Cisbio pERK HTRF
H358 cells = assay: Inhibition of KRas-mediated phosphorylation of ERK (Cisbio HTRF pERK), H358 cells; assay type: cell-based; conditions: Homo sapiens, NCI-H358, 3 h, 3 hr compound incubation, Cisbio pERK HTRF
KRas G12S = KRas G12S (Homo sapiens, UniProt P01116, G12S); assay type: binding; conditions: TR-FRET displacement, read-out: Binding to KRas (IC50 nM) G12S
HCT116 cells = assay: Inhibition of KRas-mediated phosphorylation of ERK (Cisbio HTRF pERK), HCT116 cells; assay type: cell-based; conditions: Homo sapiens, HCT-116, 3 h, 3 hr compound incubation, Cisbio pERK HTRF
ASPC1 cells = assay: Inhibition of KRas-mediated phosphorylation of ERK (Cisbio HTRF pERK), ASPC1 cells; assay type: cell-based; conditions: Homo sapiens, ASPC1, 3 h, AsPC-1 cells; 3 hr compound incubation; Cisbio pERK HTRF
KRas G12D = KRas G12D (Homo sapiens, UniProt P01116, G12D); assay: biochemical; conditions: Binding to KRas (IC50 nM) G12D, TR-FRET displacement, KRas G12D
MKN1 cells = assay: Inhibition of KRas-mediated phosphorylation of ERK (Cisbio HTRF pERK), MKN1 cells; assay type: cell-based; conditions: Homo sapiens, MKN-1, 3 hour compound incubation, Cisbio pERK HTRF
Summary of the method: as §1

KRas G12V = KRas G12V (Homo sapiens, UniProt P01116, G12V); assay: biochemical; conditions: Binding to KRas (IC50 nM) G12V, TR-FRET displacement, KRas G12V
KRas G12C = KRas G12C (Homo sapiens, UniProt P01116, G12C); assay type: binding; conditions: TR-FRET displacement, read-out: Binding to KRas (IC50 nM) G12C
H460 cells = assay: Inhibition of KRas-mediated phosphorylation of ERK (Cisbio HTRF pERK), H460 cells; assay type: cell-based; conditions: Homo sapiens, NCI-H460, 3 h, 3 hr compound incubation, Cisbio pERK HTRF
KRas WT = KRas WT (Homo sapiens, UniProt P01116); assay: KRas binding assay (TR-FRET displacement), KRas WT; conditions: TR-FRET displacement
KRas WT, sequence (P01116 1-169 isoform P01116-2): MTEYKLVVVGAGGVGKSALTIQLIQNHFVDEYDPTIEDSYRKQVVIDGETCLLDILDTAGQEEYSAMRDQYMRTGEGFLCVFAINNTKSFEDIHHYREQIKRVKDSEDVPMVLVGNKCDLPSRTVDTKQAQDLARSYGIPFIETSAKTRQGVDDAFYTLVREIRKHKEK

KRas G12D, sequence (P01116 1-169 isoform P01116-2 G12D): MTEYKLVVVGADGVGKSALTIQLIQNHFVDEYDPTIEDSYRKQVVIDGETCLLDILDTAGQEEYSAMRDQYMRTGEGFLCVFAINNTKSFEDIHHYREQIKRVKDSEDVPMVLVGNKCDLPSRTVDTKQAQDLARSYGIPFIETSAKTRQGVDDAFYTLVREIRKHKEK
KRas G12V, sequence (P01116 1-169 isoform P01116-2 G12V): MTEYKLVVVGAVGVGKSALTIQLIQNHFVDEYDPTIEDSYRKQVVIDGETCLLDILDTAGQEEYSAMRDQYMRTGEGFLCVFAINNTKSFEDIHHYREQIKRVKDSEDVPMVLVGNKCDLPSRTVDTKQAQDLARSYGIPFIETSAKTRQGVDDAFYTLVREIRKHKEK
KRas G12C, sequence (P01116 1-169 isoform P01116-2 G12C): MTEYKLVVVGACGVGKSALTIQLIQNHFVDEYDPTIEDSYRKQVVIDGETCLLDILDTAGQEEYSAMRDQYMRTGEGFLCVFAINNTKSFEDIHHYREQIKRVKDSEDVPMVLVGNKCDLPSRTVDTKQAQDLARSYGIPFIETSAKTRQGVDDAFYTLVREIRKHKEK
KRas G12S, sequence (P01116 1-169 isoform P01116-2 G12S): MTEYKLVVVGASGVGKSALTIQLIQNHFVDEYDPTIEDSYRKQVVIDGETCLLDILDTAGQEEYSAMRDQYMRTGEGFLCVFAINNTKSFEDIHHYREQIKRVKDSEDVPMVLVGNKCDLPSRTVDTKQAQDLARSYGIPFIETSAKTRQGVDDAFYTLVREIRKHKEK

CCc1c(F)ccc2cc(O)cc(N3CCc4c(nc(OCC56CCCN5C/C(=C\F)C6)nc4N4CCC[C@]5(C4)NC(=O)NC5=O)C3)c12 (stereo partly drawn) [Example 577, (5R)-7-(7-(8-ethyl-7-fluoro-3-hydroxynaphthalen-1-yl)-2-(((Z)-2-(fluoromethylene)tetrahydro-1H-pyrrolizin-7a(5H)-yl)methoxy)-5,6,7,8-tetrahydropyrido[3,4-d]pyrimidin-4-yl)-1,3,7-triazaspiro[4.5]decane-2,4-dione]
IC50 (A549 cells): 1 nM
IC50 (PSN1 cells): 7 nM
IC50 (H727 cells): 6 nM
IC50 (H358 cells): 1 nM
IC50 (KRas G12S): < 2 nM
IC50 (HCT116 cells): 2 nM
IC50 (ASPC1 cells): 2 nM
IC50 (KRas G12D): < 2 nM
IC50 (MKN1 cells): 0.1 nM
IC50 (KRas G12V): < 2 nM
IC50 (KRas G12C): < 2 nM
IC50 (H460 cells): 1 nM
IC50 (KRas WT): < 2 nM

CCc1c(F)ccc2cc(O)cc(N3CCc4c(nc(OCC56CCCN5C/C(=C\F)C6)nc4N4CCCn5nc(C(=O)N(C)C)cc5C4)C3)c12 (centres unmarked) [Example 578, (Z)-5-(7-(8-ethyl-7-fluoro-3-hydroxynaphthalen-1-yl)-2-((2-(fluoromethylene)tetrahydro-1H-pyrrolizin-7a(5H)-yl)methoxy)-5,6,7,8-tetrahydropyrido[3,4-d]pyrimidin-4-yl)-N,N-dimethyl-5,6,7,8-tetrahydro-4H-pyrazolo[1,5-a][1,4]diazepine-2-carboxamide]
IC50 (A549 cells): 4 nM
IC50 (PSN1 cells): 1040 nM
IC50 (H727 cells): 2 nM
IC50 (H358 cells): 1 nM
IC50 (KRas G12S): < 2 nM
IC50 (HCT116 cells): 36 nM
IC50 (ASPC1 cells): 1 nM
IC50 (KRas G12D): < 2 nM
IC50 (MKN1 cells): 0.3 nM
IC50 (KRas G12V): < 2 nM
IC50 (KRas G12C): < 2 nM
IC50 (H460 cells): 7 nM
IC50 (KRas WT): < 2 nM

C=C1CN2CC(=C)CC2(COc2nc3c(c(N4C[C@@H]5C[C@H](C4)[C@H](O)C5)n2)CCN(c2cc(O)cc4ccc(F)c(CC)c24)C3)C1 [Example 579, (1R,5R,6R)-3-(2-((2,6-dimethylenetetrahydro-1H-pyrrolizin-7a(5H)-yl)methoxy)-7-(8-ethyl-7-fluoro-3-hydroxynaphthalen-1-yl)-5,6,7,8-tetrahydropyrido[3,4-d]pyrimidin-4-yl)-3-azabicyclo[3.2.1]octan-6-ol]
IC50 (A549 cells): 168 nM
IC50 (PSN1 cells): > 10000 nM
IC50 (H727 cells): 513 nM
IC50 (H358 cells): 204 nM
IC50 (KRas G12S): 3 nM
IC50 (HCT116 cells): 968 nM
IC50 (ASPC1 cells): 699 nM
IC50 (KRas G12D): 7 nM
IC50 (MKN1 cells): 18.3 nM
IC50 (KRas G12V): 2 nM
IC50 (KRas G12C): 4 nM
IC50 (H460 cells): 227 nM
IC50 (KRas WT): 4 nM

C=C1CN2CCCC2(COc2nc3c(c(N4CCC[C@@](C)(O)C4)n2)CCN(c2cc(O)cc4ccc(F)c(CC)c24)C3)C1 (stereo partly drawn) [Example 580, (3R)-1-(7-(8-ethyl-7-fluoro-3-hydroxynaphthalen-1-yl)-2-((2-methylenetetrahydro-1H-pyrrolizin-7a(5H)-yl)methoxy)-5,6,7,8-tetrahydropyrido[3,4-d]pyrimidin-4-yl)-3-methylpiperidin-3-ol]
IC50 (A549 cells): 26 nM
IC50 (PSN1 cells): 405 nM
IC50 (H727 cells): 71 nM
IC50 (H358 cells): 14 nM
IC50 (KRas G12S): < 2 nM
IC50 (HCT116 cells): 71 nM
IC50 (ASPC1 cells): 16 nM
IC50 (KRas G12D): < 2 nM
IC50 (MKN1 cells): 1 nM
IC50 (KRas G12V): < 2 nM
IC50 (KRas G12C): < 2 nM
IC50 (H460 cells): 17 nM
IC50 (KRas WT): < 2 nM

C=C1CN2CC(=C)CC2(COc2nc3c(c(N4CCC[C@@](C)(O)C4)n2)CCN(c2cc(O)cc4ccc(F)c(CC)c24)C3)C1 [Example 582, (R)-1-(2-((2,6-dimethylenetetrahydro-1H-pyrrolizin-7a(5H)-yl)methoxy)-7-(8-ethyl-7-fluoro-3-hydroxynaphthalen-1-yl)-5,6,7,8-tetrahydropyrido[3,4-d]pyrimidin-4-yl)-3-methylpiperidin-3-ol]
IC50 (A549 cells): 86 nM
IC50 (PSN1 cells): 2480 nM
IC50 (H727 cells): 204 nM
IC50 (H358 cells): 40 nM
IC50 (KRas G12S): 2 nM
IC50 (HCT116 cells): 219 nM
IC50 (ASPC1 cells): 79 nM
IC50 (KRas G12D): 3 nM
IC50 (MKN1 cells): 3.1 nM
IC50 (KRas G12V): < 2 nM
IC50 (KRas G12C): 2 nM
IC50 (H460 cells): 63 nM
IC50 (KRas WT): < 2 nM
